18 compounds from ChEMBL document CHEMBL5137015, “Design, synthesis, and evaluation of a novel series of mono-indolylbenzoquinones derivatives for the potential treatment of breast cancer” (Eur J Med Chem, 2022) can be followed below.

The source made the active and inactive calls. No cut-off for these calls is given here. Bounds are passed on as bounds.

Series [1] has as its system A549. The experiment in a line: Antiproliferative activity against human A549 cells assessed as inhibition of cell growth by MTT assay. It counts as functional, cell-based.
The test system of series [2] is MDA-MB-231. The experiment in a line: Antiproliferative activity against human MDA-MB-231 cells assessed as inhibition of cell growth by MTT assay. It counts as functional, cell-based. Background: Tetrazolium assays rely on reduction of a dye to a coloured formazan, in cell work by metabolically active cells.
For series [3], the system named is HeLa. The experiment in a line: Antiproliferative activity against human HeLa cells assessed as inhibition of cell growth by MTT assay. Type of series: functional, cell-based.
Series [4] concerns MDA-MB-231. The experiment in a line: Induction of cell cycle arrest in human MDA-MB-231 cells assessed as decrease in G1 phase cells at 10 uM incubated for 24 hrs by PI staining based flow cytometric analysis (reference value: 74.44%). Further details: scale not given: the % may be the effect or the level left. It counts as functional. For orientation: A flow cytometer gives signals particle by particle.

Series [5] relates to MDA-MB-231. The experiment in a line: Induction of cell cycle arrest in human MDA-MB-231 cells assessed as decrease in S phase cells at 10 uM incubated for 24 hrs by PI staining based flow cytometric analysis (reference value: 16.61%). Type of series: functional. On the set-up: scale not given: the % may be the effect or the level left.
Series [6] deals with MDA-MB-231. The experiment in a line: Induction of cell cycle arrest in human MDA-MB-231 cells assessed as increase in G2 phase cells at 10 uM incubated for 24 hrs by PI staining based flow cytometric analysis (reference value: 8.95%). It counts as functional.
In series [7] the test system is MDA-MB-231. The experiment in a line: Induction of apoptosis in human MDA-MB-231 cells assessed as apoptotic cells at 10 uM incubated for 24 hrs by Annexin V-FITC/propidium iodide staining based flow cytometric method (reference value: 5.68%). Type of series: functional.
Series [8] concerns 4T1. The experiment in a line: Antitumor activity against mouse 4T1 cells implanted in Balb/c mouse assessed as apoptotic rate of dissected tumor cell at 50 mg/kg administered intratumorally every four days for 14 days in the presence of liquid cyanoacrylate by flow cytometric analysis (reference value: 64.83%). The conditions noted are these: route it(Intratumoral), time 14 day. Type of series: functional.

For series [9], the system named is 4T1. The experiment in a line: Antitumor activity against mouse 4T1 cells implanted in Balb/c mouse assessed as tumor growth inhibition by measuring T/C ratio at 50 mg/kg administered intratumorally every four days for 14 days in the presence of liquid cyanoacrylate. Type of series: functional. The conditions noted are these: route it(Intratumoral), time 14 day.

Series [10] deals with Mus musculus. The experiment in a line: Protection of Balb/c mouse spleen implanted with mouse 4T1 cells at 50 mg/kg administered intratumorally every four days for 14 days in the presence of liquid cyanoacrylate. Type of series: functional, organism-based. The conditions noted are these: route it(Intratumoral), time 14.0 day.
Series [11] deals with 4T1. The experiment in a line: Antitumor activity against mouse 4T1 cells implanted in Balb/c mouse assessed as tumor growth inhibition at 50 mg/kg administered intratumorally every four days for 14 days in the presence of liquid cyanoacrylate relative to control. Type of series: functional. The conditions noted are these: 4T1, 336 h, route it(Intratumoral), time 14 day, read-out: TGI.

Series [12] can be described thus: Toxicity in Balb/c mouse implanted with mouse 4T1 cells assessed as heart lesions at 50 mg/kg administered intratumorally every four days for 14 days in the presence of liquid cyanoacrylate by H&E staining based histopathological analysis. It counts as organism-based. The following applies: in vivo, other, 336 h, route it(Intratumoral), time 14 day.
Series [13] in a line: Toxicity in Balb/c mouse implanted with mouse 4T1 cells assessed as liver lesions at 50 mg/kg administered intratumorally every four days for 14 days in the presence of liquid cyanoacrylate by H&E staining based histopathological analysis. It counts as organism-based. The following applies: in vivo, other, 336 h, route it(Intratumoral), time 14 day.
The nature of series [14]: Toxicity in Balb/c mouse implanted with mouse 4T1 cells assessed as spleen lesions at 50 mg/kg administered intratumorally every four days for 14 days in the presence of liquid cyanoacrylate by H&E staining based histopathological analysis. The conditions noted are these: in vivo, other, 336 h, route it(Intratumoral), time 14 day. It counts as organism-based.
The nature of series [15]: Toxicity in Balb/c mouse implanted with mouse 4T1 cells assessed as lung lesions at 50 mg/kg administered intratumorally every four days for 14 days in the presence of liquid cyanoacrylate by H&E staining based histopathological analysis. Type of series: organism-based. The conditions noted are these: in vivo, other, 336 h, route it(Intratumoral), time 14 day.
Series [16] can be described thus: Toxicity in Balb/c mouse implanted with mouse 4T1 cells assessed as kidney lesions at 50 mg/kg administered intratumorally every four days for 14 days in the presence of liquid cyanoacrylate by H&E staining based histopathological analysis. It counts as organism-based. The conditions noted are these: in vivo, other, 336 h, route it(Intratumoral), time 14 day.
Series [17] concerns 4T1. The experiment in a line: Antitumor activity against mouse 4T1 cells implanted in Balb/c mouse assessed as nuclei disappearance at 50 mg/kg administered intratumorally every four days for 14 days in the presence of liquid cyanoacrylate. It counts as functional, organism-based. The conditions noted are these: route it(Intratumoral), time 14.0 day.
In series [18] the test system is 4T1. The experiment in a line: Antitumor activity against mouse 4T1 cells implanted in Balb/c mouse assessed as TUNEL positive cells at 50 mg/kg administered intratumorally every four days for 14 days in the presence of liquid cyanoacrylate by TUNEL staining analysis. It counts as functional. The following applies: route it(Intratumoral), time 14 day.

In general, IC50 refers to the concentration that inhibits the measured activity by half. Regarding `COC(=O)/C=C/C(=O)OCCN1CCN(C2=C(Cl)C(=O)C(Cl)=C(c3c(C)[nH]c4ccccc34)C2=O)CC1`, the IC50 in [1] came out at 8380 nM; in series [2], 260 nM; in series [3], 220 nM.

Turning to `Cc1[nH]c2ccccc2c1C1=C(Cl)C(=O)C(N2CCOCC2)=C(Cl)C1=O`, the IC50 in series [1] was 170 nM; in series [2] it was 200 nM; in series [3], 250 nM. Further, the Activity in series [4] came to 10.44%; in [5] it was 7.67%; in series [6], 81.89%; in series [7], 31.74%.

Consider `Cc1[nH]c2ccccc2c1C1=C(Cl)C(=O)C(Cl)=C(N2CCN(C=O)CC2)C1=O`, for which the IC50 in series [1] is 170 nM; in [2] it was 120 nM; in [3], 350 nM.

For `COc1ccc(CCNC2=C(Cl)C(=O)C(Cl)=C(c3c(C)[nH]c4ccccc34)C2=O)cc1OC`, the IC50 in series [1] was found to be 8640 nM; in series [2] it was 1490 nM; in series [3], 9730 nM.

For `Cc1[nH]c2ccccc2c1C1=C(Cl)C(=O)C(Cl)=C(NCCOc2ccccc2)C1=O`, the figures for the IC50 in [1], in [2] and in [3] were > 10000 nM, 710 nM and > 10000 nM, respectively.

For `Cc1[nH]c2ccccc2c1C1=C(Cl)C(=O)C(N2CCN(C=O)CC2)=C(Cl)C1=O`, the IC50 in series [1] was found to be 370 nM; in [2], 200 nM; in [3], 740 nM.

For the compound `C#CCNC1=C(Cl)C(=O)C(Cl)=C(c2c(C)[nH]c3ccccc23)C1=O`, the IC50 in series [1] was found to be 160 nM; in series [2], 190 nM; in series [3] it was 190 nM.

As to `Cn1c(CCCC(=O)O)nc2cc(N(CCCl)CCCl)ccc21` [BENDAMUSTINE], in [3], the IC50 is > 20000 nM.

On to `COC(=O)/C=C/C(=O)OCCN1CCN(C2=C(Cl)C(=O)C(c3c(C)[nH]c4ccccc34)=C(Cl)C2=O)CC1`, for which the values for the IC50 in series [1], in series [2] and in series [3] were 320 nM, 140 nM and 330 nM, respectively.

`Cc1[nH]c2ccccc2c1C1=C(Cl)C(=O)C(Cl)=C(NCCc2cc3ccccc3[nH]2)C1=O`: the results for the IC50 in series [1], in series [2] and in [3] were > 10000 nM, 620 nM and > 10000 nM, respectively.

With `COc1ccc(CCNC2=C(Cl)C(=O)C(c3c(C)[nH]c4ccccc34)=C(Cl)C2=O)cc1OC`, the IC50 in [1] was 720 nM; in series [2], 290 nM; in [3], 6300 nM.

Take `COC(=O)/C=C/C(=O)OCCNC1=C(Cl)C(=O)C(c2c(C)[nH]c3ccccc23)=C(Cl)C1=O`: the figures for the IC50 in [1], in series [2] and in series [3] were 150 nM, 110 nM and 220 nM, respectively.

As for `COc1ccc(/C=C\c2cc(OC)c(OC)c(OC)c2)cc1O` [COMBRETASTATIN A4], the Activity is recorded as 8.4% in [4], 8% in series [5], 91.6% in series [6] and 25.55% in series [7].

In the case of `Cc1[nH]c2ccccc2c1C1=C(Cl)C(=O)C(NCCc2cc3ccccc3[nH]2)=C(Cl)C1=O`, the IC50 in series [1] worked out at 440 nM; in series [2], 830 nM; in [3], 3110 nM.

As for `Cc1[nH]c2ccccc2c1C1=C(Cl)C(=O)C(NCCOc2ccccc2)=C(Cl)C1=O`, the IC50 in series [1] was determined as 7090 nM; in [2], 730 nM; in series [3], 5050 nM.

Turning to `C#CCNC1=C(Cl)C(=O)C(c2c(C)[nH]c3ccccc23)=C(Cl)C1=O`, the IC50 in series [1] came to 670 nM; in series [2], 170 nM; in series [3], 920 nM.

As usually defined, the T/C is the ratio of treated to control. For the compound `O=C1c2c(O)ccc(O)c2C(=O)c2c(NCCNCCO)ccc(NCCNCCO)c21` [MITOXANTRONE], the Activity in series [8] is 77.86%; in [12], “Non-Toxic”; in [13], “Non-Toxic”; in series [14] it was “Non-Toxic”; in series [15], “Non-Toxic”; in series [16] it was “Non-Toxic”. Further, the Activity in [18] came out at 93.24%. Moreover, in series [9], the T/C is recorded as 32%. Besides, the outcome in series [10] and in [17] was Active. In [11], the inhibition in vivo at 50 mg/kg stood at 59.8%.

In the case of `COC(=O)/C=C/C(=O)OCCNC1=C(Cl)C(=O)C(Cl)=C(c2c(C)[nH]c3ccccc23)C1=O`, the values for the IC50 in series [1], in series [2] and in series [3] were 340 nM, 140 nM and 110 nM, respectively.
